Laboratory results published in ChEMBL document CHEMBL1123320, “Studies in potential filaricides. 18. Synthesis of 2,2'-disubstituted 5,5'-dibenzimidazolyl ketones and related compounds as potential anthelmintics” (1986).

Experiments:
Mastomys natalensis [1] = test: Filaricidal activity against Brugia malayi in Mastomys at a dosage of 50 mg/kg x 5 administered intraperitoneally; format: functional; conditions: route intraperitoneal
Mastomys natalensis [2] = test: Filaricidal activity against Dipetalonema viteae in Mastomys at a dosage of 175 mg/kg x 5 administered subcutaneous; format: functional
Mastomys natalensis [3] = test: Filaricidal activity against Brugia malayi in Mastomys at a dosage of 50 mg/kg x 5 administered intraperitoneally at a day of 21; format: functional; conditions: route intraperitoneal
Mastomys natalensis [4] = test: Filaricidal activity against Brugia malayi in Mastomys at a dosage of 50 mg/kg x 5 administered intraperitoneally at a day of 42; format: functional; conditions: route intraperitoneal
Mastomys natalensis [5] = test: Filaricidal activity against Brugia malayi in Mastomys at a dosage of 50 mg/kg x 5 administered intraperitoneally at a day of 63; format: functional; conditions: route intraperitoneal
Mastomys natalensis [6] = test: Filaricidal activity against Brugia malayi in Mastomys at a dosage of 50 mg/kg x 5 administered intraperitoneally at a day of 8; format: functional; conditions: route intraperitoneal
Mastomys natalensis [7] = test: Filaricidal activity against Brugia malayi in Mastomys at a dosage of 50 mg/kg x 5 administered intraperitoneally at a day of 91; format: functional; conditions: route intraperitoneal
Mastomys natalensis [8] = test: Filaricidal activity against Dipetalonema viteae in Mastomys at a dosage of 175 mg/kg x 5 administered subcutaneous at a day of 21; format: functional
Mastomys natalensis [9] = test: Filaricidal activity against Dipetalonema viteae in Mastomys at a dosage of 175 mg/kg x 5 administered subcutaneous at a day of 42; format: functional
Mastomys natalensis [10] = test: Filaricidal activity against Dipetalonema viteae in Mastomys at a dosage of 175 mg/kg x 5 administered subcutaneous at a day of 8; format: functional
Rattus norvegicus [11] = test: Filaricidal activity against Litomosoides carinii in cotton rats at a dosage of 6 mg/kg x 5 administered intraperitoneally; format: functional; conditions: route intraperitoneal
[12] = Filaricidal activity against Litomosoides carinii in cotton rats at a dosage of 6 mg/kg x 5 administered intraperitoneally at a day of 8; conditions: route intraperitoneal
Cricetinae gen. sp. [13] = test: Anthelmintic activity against Ancylostoma ceylanicum (hook worm) in hamsters at a dose of 1x 1 mg/kg administered perorally; format: functional, Cricetulus griseus; conditions: route oral
Cricetinae gen. sp. [14] = test: Anthelmintic activity against Ancylostoma ceylanicum in hamsters at a dose 1x 1 mg/kg administered perorally; format: functional, Cricetulus griseus; conditions: route oral
Cricetinae gen. sp. [15] = test: Anthelmintic activity against Ancylostoma ceylanicum in hamsters at a dose of 0.5x1 mg/kg administered perorally; format: functional, Cricetulus griseus
Mastomys natalensis [16] = test: Filaricidal activity against Brugia malayi in Mastomys at a dosage of 200 mg/kg x 5 administered orally; format: functional; conditions: route oral
Mastomys natalensis [17] = test: Filaricidal activity against Dipetalonema viteae in Mastomys at a dosage of 300 mg/kg x 5 administered orally; format: functional; conditions: route oral
Mastomys natalensis [18] = test: Filaricidal activity against Dipetalonema viteae in Mastomys at a dosage of 6.25 mg/kg x 5 administered subcutaneous; format: functional
Mastomys natalensis [19] = test: Filaricidal activity against Brugia malayi in Mastomys at a dosage of 200 mg/kg x 5 administered orally at a day of 42; format: functional; conditions: route oral
Mastomys natalensis [20] = test: Filaricidal activity against Brugia malayi in Mastomys at a dosage of 200 mg/kg x 5 administered orally at a day of 63; format: functional; conditions: route oral
Mastomys natalensis [21] = test: Filaricidal activity against Brugia malayi in Mastomys at a dosage of 200 mg/kg x 5 administered orally at a day of 8; format: functional; conditions: route oral
Mastomys natalensis [22] = test: Filaricidal activity against Brugia malayi in Mastomys at a dosage of 200 mg/kg x 5 administered orally at a day of 91; format: functional; conditions: route oral
Mastomys natalensis [23] = test: Filaricidal activity against Dipetalonema viteae in Mastomys at a dosage of 6.25 mg/kg x 5 administered subcutaneous at a day of 42; format: functional
Mastomys natalensis [24] = test: Filaricidal activity against Dipetalonema viteae in Mastomys at a dosage of 300 mg/kg x 5 administered orally at a day of 21; format: functional; conditions: route oral
Mastomys natalensis [25] = test: Filaricidal activity against Dipetalonema viteae in Mastomys at a dosage of 300 mg/kg x 5 administered orally at a day of 42; format: functional; conditions: route oral
Mastomys natalensis [26] = test: Filaricidal activity against Dipetalonema viteae in Mastomys at a dosage of 6.25 mg/kg x 5 administered subcutaneous at a day of 21; format: functional
Mastomys natalensis [27] = test: Filaricidal activity against Dipetalonema viteae in Mastomys at a dosage of 6.25 mg/kg x 5 administered subcutaneous at a day of 8; format: functional
Mus musculus [28] = test: Anthelmintic activity against Syphacia obvelata in mice at a dose of 100x1 mg/kg administered perorally; format: functional
Mus musculus [29] = test: Anthelmintic activity against Syphacia obvelata in mice at a dose of 50x1 mg/kg administered perorally; format: functional
Rattus norvegicus [30] = test: Anthelmintic activity against Hymenolepis nana in rats at a dose of 400x3 mg/kg administered perorally; format: functional
Rattus norvegicus [31] = test: Filaricidal activity against Litomosoides carinii in cotton rats at a dosage of 10 mg/kg x 5 administered intraperitoneally at a day of 42; format: functional; conditions: route intraperitoneal
Rattus norvegicus [32] = test: Filaricidal activity against Litomosoides carinii in cotton rats at a dosage of 300 mg/kg x 5 administered orally at a day of 8; format: functional; conditions: route oral
Rattus norvegicus [33] = test: Filaricidal activity against Litomosoides carinii in cotton rats at a dosage of 300 mg/kg x 5 administered orally at a day of 21; format: functional; conditions: route oral
Rattus norvegicus [34] = test: Filaricidal activity against Litomosoides carinii in cotton rats at a dosage of 300 mg/kg x 5 administered orally at a day of 42; format: functional; conditions: route oral
Mastomys natalensis [35] = test: Filaricidal activity against Brugia malayi in Mastomys at a dosage of 200 mg/kg x 5 administered orally at a day of 21; format: functional; conditions: route oral
Mastomys natalensis [36] = test: Filaricidal activity against Dipetalonema viteae in Mastomys at a dosage of 300 mg/kg x 5 administered orally at a day of 8; format: functional; conditions: route oral
Litomosoides carinii = test: Filaricidal activity against Litomosoides carinii in cotton rats at a dosage of 300 mg/kg x 5 administered orally; conditions: route oral
Sigmodon hispidus [37] = test: Filaricidal activity against Litomosoides carinii in cotton rats at a dosage of 10 mg/kg x 5 administered intraperitoneally at a day of 8; conditions: route intraperitoneal
Sigmodon hispidus [38] = test: Filaricidal activity against Litomosoides carinii in cotton rats at a dosage of 10 mg/kg x 5 administered intraperitoneally at a day of 21; conditions: route intraperitoneal
Sigmodon hispidus [39] = test: Filaricidal activity against Litomosoides carinii in cotton rats at a dosage of 10 mg/kg x 5 administered intraperitoneally at a day of 42; conditions: route intraperitoneal

CCN(CC)C(=O)N1CCN(C)CC1 [DIETHYLCARBAMAZINE]
Death (Mastomys natalensis [1]): 57.8% | Death (Mastomys natalensis [2]): 0% | Removal of microfilariae (Mastomys natalensis [3]): 88.6% | Removal of microfilariae (Mastomys natalensis [4]): 90.7% | Removal of microfilariae (Mastomys natalensis [5]): 71.6% | Removal of microfilariae (Mastomys natalensis [6]): 95.9% | Removal of microfilariae (Mastomys natalensis [7]): 91.6% | Removal of microfilariae (Mastomys natalensis [8]): 94.1% | Removal of microfilariae (Mastomys natalensis [9]): 51.6% | Removal of microfilariae (Mastomys natalensis [10]): 99.6% | Death (Rattus norvegicus [11]): 0% | Removal of microfilariae [12]: 97.1%

COC(=O)Nc1nc2cc(C(=O)c3ccccc3)ccc2[nH]1 [MEBENDAZOLE]
Worm reduction (Cricetinae gen. sp. [13]): 100% | Animals cured (Cricetinae gen. sp. [14]): 100% | Animals cured (Cricetinae gen. sp. [15]): 37.5% | Worm reduction (Cricetinae gen. sp. [15]): 72% | Death (Mastomys natalensis [16]): 0% | Death (Mastomys natalensis [1]): 100% | Death (Mastomys natalensis [17]): 85.4% | Death (Mastomys natalensis [18]): 100% | Removal of microfilariae (Mastomys natalensis [19]): 0% | Removal of microfilariae (Mastomys natalensis [20]): 0% | Removal of microfilariae (Mastomys natalensis [21]): 0% | Removal of microfilariae (Mastomys natalensis [22]): 0% | Removal of microfilariae (Mastomys natalensis [3]): 65.3% | Removal of microfilariae (Mastomys natalensis [4]): 100% | Removal of microfilariae (Mastomys natalensis [5]): 100% | Removal of microfilariae (Mastomys natalensis [6]): 0% | Removal of microfilariae (Mastomys natalensis [7]): 100% | Removal of microfilariae (Mastomys natalensis [23]): 100% | Removal of microfilariae (Mastomys natalensis [24]): 85.5% | Removal of microfilariae (Mastomys natalensis [25]): 100% | Removal of microfilariae (Mastomys natalensis [26]): 100% | Removal of microfilariae (Mastomys natalensis [27]): 53.1% | Animals cured (Mus musculus [28]): 66.6% | Animals cured (Mus musculus [29]): 0% | Animals cured (Rattus norvegicus [30]): 0% | Death (Rattus norvegicus [31]): 100% | Removal of microfilariae (Rattus norvegicus [32]): 48.8% | Removal of microfilariae (Rattus norvegicus [33]): 57.7% | Removal of microfilariae (Rattus norvegicus [34]): 74.3% | Removal of microfilariae (Mastomys natalensis [35]): 0% | Removal of microfilariae (Mastomys natalensis [36]): 0% | Death (Litomosoides carinii): 33.8% | Removal of microfilariae (Sigmodon hispidus [37]): 58.6% | Removal of microfilariae (Sigmodon hispidus [38]): 96.3% | Removal of microfilariae (Sigmodon hispidus [39]): 100%
